We go through five molecules from ChEMBL document CHEMBL1125246, “Configuration and preferential solid-state conformations of perindoprilat (S-9780). Comparison with the crystal structures of other ACE inhibitors and conclusions related to structure-activity relationships” (J Med Chem, 1991).

The target of the assay is T1, Angiotensin-converting enzyme (Oryctolagus cuniculus, UniProt P12822).
T1 sequence (P12822 whole entry): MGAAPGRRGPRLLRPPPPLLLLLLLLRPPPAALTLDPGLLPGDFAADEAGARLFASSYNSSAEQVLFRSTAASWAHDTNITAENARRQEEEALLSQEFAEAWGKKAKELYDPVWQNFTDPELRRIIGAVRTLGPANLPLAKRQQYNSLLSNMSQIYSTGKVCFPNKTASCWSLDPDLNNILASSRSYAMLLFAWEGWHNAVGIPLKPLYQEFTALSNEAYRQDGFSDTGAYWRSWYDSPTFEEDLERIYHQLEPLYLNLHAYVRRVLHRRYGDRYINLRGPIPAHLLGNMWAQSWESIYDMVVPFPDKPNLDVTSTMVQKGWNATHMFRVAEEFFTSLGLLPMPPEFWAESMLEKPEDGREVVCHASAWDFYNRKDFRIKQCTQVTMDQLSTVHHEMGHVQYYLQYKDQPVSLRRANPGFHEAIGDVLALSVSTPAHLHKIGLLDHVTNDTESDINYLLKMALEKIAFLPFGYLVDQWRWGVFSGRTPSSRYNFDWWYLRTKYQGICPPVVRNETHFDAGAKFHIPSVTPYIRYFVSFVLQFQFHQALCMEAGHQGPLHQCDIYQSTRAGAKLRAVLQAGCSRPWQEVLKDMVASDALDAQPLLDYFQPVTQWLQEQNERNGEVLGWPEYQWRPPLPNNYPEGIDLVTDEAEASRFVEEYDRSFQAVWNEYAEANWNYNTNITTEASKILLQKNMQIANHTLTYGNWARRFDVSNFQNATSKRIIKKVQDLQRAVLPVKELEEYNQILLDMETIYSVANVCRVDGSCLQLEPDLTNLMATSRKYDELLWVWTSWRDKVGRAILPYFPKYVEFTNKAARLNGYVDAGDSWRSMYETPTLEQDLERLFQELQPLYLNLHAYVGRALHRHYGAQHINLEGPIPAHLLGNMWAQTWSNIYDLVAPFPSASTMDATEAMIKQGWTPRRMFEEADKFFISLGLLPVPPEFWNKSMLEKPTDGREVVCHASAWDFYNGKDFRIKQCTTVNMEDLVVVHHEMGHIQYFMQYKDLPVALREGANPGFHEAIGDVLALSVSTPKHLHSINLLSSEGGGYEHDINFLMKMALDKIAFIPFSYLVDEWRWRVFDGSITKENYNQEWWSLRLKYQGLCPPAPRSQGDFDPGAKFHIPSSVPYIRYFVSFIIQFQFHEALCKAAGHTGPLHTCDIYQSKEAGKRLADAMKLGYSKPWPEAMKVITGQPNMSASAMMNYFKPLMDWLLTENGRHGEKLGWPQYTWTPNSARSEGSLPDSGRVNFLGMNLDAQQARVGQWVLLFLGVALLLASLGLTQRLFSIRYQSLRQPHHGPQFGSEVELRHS
Put plainly: In vitro activity against angiotensin I converting enzyme especially against Hip-His-Leu residues.
In the case of `O=C(O)[C@H](CCc1ccccc1)NCC(=O)N1CCC[C@H]1C(=O)O`, the IC50 – broadly, the concentration at which inhibition is half-maximal – stood at 0.23 µM.

With `O=C(O)C1CCCN1C(=O)CCS` (stereo not given), it took 0.2 µM to reach half-maximal inhibition (IC50).

`CCC[C@H](NCC(=O)N1C2CCCCC2C[C@H]1C(=O)O)C(=O)O` (stereo not given in full) showed an IC50 of 0.0019 µM.

In the case of `CCCC(N[C@H](C)C(=O)N1C(C(=O)O)CC2CCCCC21)C(=O)O` (stereo not given in full), the half-maximal inhibitory concentration (IC50) was found to be 1.1 µM.

Molecule `CCCC(N[C@@H](C)C(=O)N1C(C(=O)O)CC2CCCCC21)C(=O)O` (stereo not given in full) displayed a 50% inhibitory concentration (IC50) of 0.0015 µM.
